Results reported in ChEMBL document CHEMBL4000231, “Natural potential neuroinflammatory inhibitors from Alhagi sparsifolia Shap” (Bioorg Med Chem Lett, 2017).

Columns and labels:
N9 [1] = assay: Antineuroinflammatory activity in mouse N9 cells assessed as inhibition of LPS-induced nitric oxide production after 24 hrs by Griess assay; assay type: functional, cell-based
N9 [2] = assay: Cytotoxicity against LPS-induced mouse N9 cells assessed as decrease in cell viability at 1 to 100 ug/ml after 24 hrs by MTT assay; assay type: cell-based; conditions: n9, 24 h

SMILES | inhibition (N9 [1]) | Activity (N9 [2])
O=c1c(O[C@@H]2O[C@H](CO)[C@@H](O)[C@H](O)[C@H]2O)c(-c2ccc(O)c(O)c2)oc2cc(O)cc(O)c12 [ISOQUERCETIN] | Dose-dependent effect | Non-Toxic
COc1cc(-c2oc3cc(O)cc(O)c3c(=O)c2O)ccc1O [ISORHAMNETIN] | Dose-dependent effect | Non-Toxic
COc1ccc(-c2coc3c(OC)c(O)ccc3c2=O)cc1O | Dose-dependent effect | Non-Toxic
COc1ccc(-c2coc3cc(O)c(OC)cc3c2=O)cc1O [ODORATIN] | Dose-dependent effect | Non-Toxic
CC1=CC(=O)CC(C)(C)[C@@]1(O)/C=C/[C@@H](C)O [BLUMENOL A] | Dose-dependent effect | Non-Toxic
CC1=CC(C)(C)[C@@H](C)C1 | Dose-dependent effect | Non-Toxic
O=c1c(O)c(-c2ccc(O)c(O)c2)oc2cc(O)cc(O)c12 [QUERCETIN] | Dose-dependent effect | Non-Toxic
CC1=CC(=O)CC(C)(C)[C@@]1(O)/C=C/C(C)=C\C(=O)O [(+)-ABSCISIC ACID] | Dose-dependent effect | Non-Toxic
COc1cc(OC)cc([C@@H]2OC[C@H]3[C@@H]2CO[C@H]3c2ccc(O)c(OC)c2)c1 | Dose-dependent effect | Non-Toxic
COc1cc([C@H]2OC[C@H]3[C@@H]2CO[C@@H]3c2cc(OC)c(O)c(OC)c2)cc(OC)c1O [SYRINGARESINOL] | Dose-dependent effect | Non-Toxic
COc1cc([C@@H]2OC[C@@H]3[C@H]2CO[C@H]3c2cc(OC)c(O[C@@H]3O[C@H](CO)[C@@H](O)[C@H](O)[C@H]3O)c(OC)c2)cc(OC)c1O [ACANTHOSIDE B] | Dose-dependent effect | Non-Toxic
COc1ccc(-c2coc3cc(O)ccc3c2=O)cc1O [CALYCOSIN] | Dose-dependent effect | Non-Toxic
C=Cc1ccc(O)cc1OC | Dose-dependent effect | Non-Toxic
COc1cc([C@@H]2OC[C@@H]3[C@H]2CO[C@H]3c2ccc(O)c(OC)c2)ccc1O [(+)-PINORESINOL] | Dose-dependent effect | Non-Toxic
COc1ccc(CO)cc1O | Dose-dependent effect | Non-Toxic
O=C(N[C@@H](Cc1ccccc1)C(=O)N[C@H](CO)Cc1ccccc1)c1ccccc1 | Dose-dependent effect | Non-Toxic
C[C@@H]1O[C@@H](OC[C@H]2O[C@@H](Oc3c(-c4ccc(O)c(O)c4)oc4cc(O)cc(O)c4c3=O)[C@H](O[C@@H]3O[C@@H](C)[C@H](O)[C@@H](O)[C@H]3O)[C@@H](O)[C@@H]2O)[C@H](O)[C@H](O)[C@H]1O | Dose-dependent effect | Non-Toxic
